In ChEMBL document CHEMBL5131391, “One-pot three-component synthesis of novel pyrazolo[3,4-b]pyridines as potent antileukemic agents” (Eur J Med Chem, 2022):
Calls of active or inactive are those of the source. The calls are words filed in the database; no cut-off is given here.

Legend:
MV4-11 = experiment: Antiproliferative activity against human MV4-11 cells assessed as reduction in cell viability incubated for 72 hrs by resazurin dye based assay; format: functional; settings: MV4-11, 72 h
KOPN-8 = experiment: Antiproliferative activity against human KOPN-8 cells assessed as reduction in cell viability incubated for 72 hrs by resazurin dye based assay; format: functional; settings: KOPN-8, 72 h
ML-2 = experiment: Antiproliferative activity against human ML-2 cells assessed as reduction in cell viability incubated for 72 hrs by resazurin dye based assay; format: functional; settings: ML-2, 72 h
RS4-11 [1] = experiment: Induction of cell cycle arrest in human RS4-11 cells assessed as accumulation of cells in subG1 phase at 1.25 to 10 uM measured after 72 hrs by PI staining based flow cytometry analysis; format: functional; settings: dose 1.25-10 µM
K562 = experiment: Antiproliferative activity against human K562 cells assessed as reduction in cell viability incubated for 72 hrs by resazurin dye based assay; format: functional; settings: K562, 72 h
RS4-11 [2] = experiment: Induction of cell cycle arrest in human RS4-11 cells assessed as accumulation of cells in G2/M phase at 1.25 to 10 uM measured after 72 hrs by PI staining based flow cytometry analysis; format: functional; settings: dose 1.25-10 µM
RS4-11 [3] = experiment: Antiproliferative activity against human RS4-11 cells assessed as reduction in cell viability incubated for 72 hrs by resazurin dye based assay; format: functional; settings: RS4-11, 72 h
RS4-11 [4] = experiment: Downregulation of HOXA9 protein expression in human RS4-11 cells at 5 to 20 uM measured after 24 hrs by Western blot analysis; format: functional, cell-based; settings: dose 5-20 µM
CCRF-CEM = experiment: Antiproliferative activity against human CEM cells assessed as reduction in cell viability incubated for 72 hrs by resazurin dye based assay; format: functional
RS4-11 [5] = experiment: Downregulation of MEIS1 protein expression in human RS4-11 cells at 5 to 20 uM measured after 24 hrs by Western blot analysis; format: functional, cell-based; settings: dose 5-20 µM

Compound | IC50 (MV4-11) | IC50 (KOPN-8) | IC50 (ML-2) | Activity (RS4-11 [1]) | IC50 (K562) | Activity (RS4-11 [2]) | IC50 (RS4-11 [3]) | Activity (RS4-11 [4]) | IC50 (CCRF-CEM) | Activity (RS4-11 [5])
Cc1ccc(-c2nc3c(c(-c4ccccc4)nn3-c3ccccc3)c(-c3ccc4c(c3)OCO4)c2C#N)cc1 | 5.1 µM | 0.7 µM | 7.7 µM | Active | 2 µM | Active | 4.6 µM | Active | 23.9 µM | Active
N#Cc1c(-c2ccc(F)cc2)nc2c(c(-c3ccccc3)nn2-c2ccccc2)c1-c1ccc(O)cc1 | 11.6 µM | 1.3 µM | 6.7 µM | Active | 10.2 µM | Active | 9.9 µM | Active | > 25 µM | Active
